Assay results from patent publication US8734787B2, “Drug delivery system” (Erydel S.p.A., priority 2009, dated 2014).

Tests used:
erythrocytes [1] = experiment: Literature: distribution of FK506 in blood and RBC binding capacity; assay type: in vitro ADME; conditions: calculated
[2] = 10-12 hours post-dose; cited from earlier work
erythrocytes [3] = conditions: cited from earlier work
human erythrocytes = experiment: Loading of recombinant FKBP12 into human erythrocytes (cell recovery, corpuscular indices); conditions: at the three tested concentrations (20, 40 and 80 μM)
Method: recombinant FKBP12 was encapsulated into human erythrocytes by means of a procedure of hypotonic dialysis, isotonic resealing and “reannealing” as previously described [Magnani M 1989]. In particular, human red blood cells were obtained from fresh blood collected in heparin from healthy donors and washed with physiologic solution containing Hepes 10 mM (pH 7.4), NaCl 154 mM and Glucose 5 mM to remove leukocytes and platelets. Recovered RBC were re-suspended at 70% haematocrit in physiologic solution, the suspension aliquoted in 3 tubes and rFKBP12 added at increasing concentrations (20, 40, 80 μM/tube). Each erythrocyte suspension was dialysed in dialysis tube with 3.5 kDa cut-off for 90 minutes at 4° C. against 50 volumes of hypotonic solution 60 mOsm containing NaH2PO4 10 mM, NaHCO3 10 mM pH 7.4, glucose 20 mM, GSH 3 mM and ATP 2 mM. At the end of the dialysis step, RBC suspensions were collected and allowed to equilibrate at 37° C. for 5 minutes under gentle stirring. […] RBC corpuscolar indices MCV, Mean Corpuscular Volume, MCH, Mean Corpuscular Haemoglobin and MCHC, Mean Corpuscular Haemoglobin Concentration) were evaluated for both loaded and un-loaded cells at the end of the procedure.

[4] = Preliminary binding studies rFKBP12-FK506 (Dot Blot); conditions: 2.5, 5, 10 μg/well protein
Method: the ability of 6His-FKBP12 to bind the FK506 ligand was assessed by a slightly modified Dot Blot analysis. Briefly, 6His-FKBP12 in native conditions was dot-blotted onto a 0.2 μm nitrocellulose membrane at increasing concentrations (2.5, 5, 10 μg/well). Successively, the membrane was subjected to a single incubation step with a solution of Tacrolimus-horseradish peroxidase conjugate (PRO-Trac™ II Tacrolimus 5× Conjugate, DiaSorin, Stillwater, Minn., USA) to allow FKBP12-Tacrolimus binding.

## C=CC[C@@H]1/C=C(\C)C[C@H](C)C[C@H](OC)[C@H]2O[C@@](O)(C(=O)C(=O)N3CCCC[C@H]3C(=O)O[C@H](/C(C)=C/[C@@H]3CC[C@@H](O)[C@H](OC)C3)[C@H](C)[C@@H](O)CC1=O)[C@H](C)C[C@@H]2OC (relative stereo) [FK506, 3S-[3R*[E(1S*,3S*,4S*)],4S*,5R*,8S*,9E,12R*,14R*,15S*,-16R*,18S*, 19S*,26aR*]]-5,6,8,11,12,13,14,15,16,17,18,19,24,25,26,26a-hexadecahydro-5,19-dihydroxy-3-[2-(4-hydroxy-3-methoxycyclohexyl)-1-methylethenyl]-14,16-dimethoxy-4,10,12,18-tetramethyl-8-(2-propenyl)-15,19-epoxy-3H-pyrido[2,1-c][1,4]oxaazacyclotricosine-1,7,20,21(4H,23H)-tetrone mono-hydrate]
Erythrocytes [1]
  FK506 binding capacity for native RBC: 0.4 μg/ml RBC 40% Ht
[2]
  therapeutic window: 5-20 ng/ml whole blood
Erythrocytes [3]
  binding capacity of RBC: around 440 ng/ml of blood
  fraction in blood associated with erythrocytes: about 85%
  fraction in blood associated with lymphocytes: 0.46%
  fraction in blood associated with plasma: 14%

## recombinant FKBP12: N-terminal His-tagged recombinant form of human 12-kDa FK506 Binding Protein expressed in E. coli BL21(DE3)
Human erythrocytes
  haemolytic effect: does not appear haemolytic
[4]
  ability to bind the FK506 ligand: able to bind Tacrolimus in a specific and dose-dependent manner
